The values that follow come from patent publication US9193687B2 (priority 2007, dated 2015).

Data set [1] concerns Human colon carcinoma HCT-116 cells. Nature of the data set: cells.
Data set [2] deals with CCRF-CEM human lymphoblastic leukemia cells. Nature of the data set: cells. As to conditions: read-out: Cytotoxicity IC50, CCRF-CEM.
Data set [3] concerns lung cancer H1299. Nature of the data set: cells. Particulars: Homo sapiens, NCI-H1299, read-out: Cytotoxicity IC50, H1299.
Data set [4] deals with lung cancer H460. Nature of the data set: cells. As to conditions: Homo sapiens, NCI-H460, read-out: Cytotoxicity IC50, H460.
Data set [5] relates to prostate cancer (PC3). The experiment in a line: cells. As to conditions: Homo sapiens, read-out: Cytotoxicity IC50, PC3.
For data set [6], the system named is CCRF-CEM/Taxol. The experiment in a line: In vitro cytotoxicity, XTT assay, taxol-resistant subline. As to conditions: Homo sapiens, CCRF-CEM, 72 h, read-out: Cytotoxicity IC50, CCRF-CEM/Taxol. For orientation: Tetrazolium assays rely on reduction of a dye to a coloured formazan, in cell work by metabolically active cells.
In data set [7] the test system is Human mammary carcinoma (MX-1) tumor cells. Nature of the data set: In vitro cytotoxicity, SRB assay, 72-hr incubation. Particulars: Homo sapiens, 72 h, read-out: Cytotoxicity IC50, MX-1.
The subject of data set [8] is human mammary carcinoma MX-1 xenograft. The experiment in a line: Antitumor therapeutic effect against MX-1 xenograft in nude mice. The data set is classed as in vivo. Particulars: for Maximal body-weight loss (%) / Therapeutic effect: complete tumor remission (CR), mice with CR/total and day: i.v. injection; for Maximal body-weight loss (%): dose and schedule per compound as in Table 3; for Therapeutic effect: complete tumor remission (CR), mice with CR/total and day: treatment from Day 8, dose and schedule per compound as in Table 3 (30-150 mg/kg). How it is done:
Athymic nude mice bearing the nu/nu gene were obtained from NCI, Frederick, Md. and used for all human tumor xenografts. Male nude mice 6 weeks or older weighing 20-24 g or more were used. Compounds were administered via the tail vein for i.v. injection or infusion as described previously.^64 A typical formulation for chemotherapeutic studies for each drug was dissolved in DSMO to make a 25 mg/ml fresh solution, 0.4 ml of this solution was mixed with 0.3 ml of Tween 80, plus 1.3 ml to make 2 ml of 5 mg/ml solution. Bolus injection volume was 0.1-0.2 ml per mouse. Tumor volume was assessed by measuring length×width×height (or width) by using a caliper. For tumor-bearing nude mice during the course of the experiment, the body weight refers to total weight minus the weight of the tumor. All animal studies were conducted in accordance with the guidelines for the National Institute of Health Guide for the Care and Use of Animals and the protocol approved by the Institutional Animal Care and Use Committee.
The therapeutic effects of a drug against human tumor xenografts in nude mice, under the optimal therapeutic conditions but without any lethality due to drug toxicity, the following degrees of therapeutic effects are defined and calculated by the following formula: […]
where • T0 is the initial tumor size (in mm^3) at beginning of drug treatment; • Tc is tumor size of untreated control group on a given date; and • Tx is tumor size of the drug treated group on a given date.
[formula] • Tumor disappearance (complete remission or CR) is defined by the effect where • [Tx=0] for a period of time (in days) for a proportion of animals (NCR/N), where • N is the total number of animals in the group, and NCR is the number of mice in the group that achieved CR. • Tumor relapse is quantitatively calculated by • [The Day tumor relapsed (Drelp)—The Day CR achieved (DCR)] (Eq. 3) for a proportion of animals (Nrelp/N) where N is the total number of animals in the group, and Nrelp is the number of the mice in the group that relapsed. • The log cell kill (LCK) of the tumor tissue after a given chemotherapy that reached CR is estimated by: LCK=log [2^(Tumor remission in days/Tumor doubling time in days)] (Eq. 4)
Athymic nude mice bearing the nu/nu gene were used for human breast tumor MX-1 xenograft (FIGS. 3 and 4) and human brain glioma U87 GM xenograft (FIG. 5). Nude mice were obtained from National Cancer Institute, Frederick, Md. Male mice 6 weeks old or older weighing 22 g or more were used for experiments with subcutaneous tumor inoculation as described previously.^67 Drug was administrated via the tail vein by iv injection. Tumor volumes were assessed by measuring length×width×height (or width) by using caliper. Vehicle used was 20 μL DMSO in 180 μL saline. All animal studies were conducted in accordance with the guidelines of the U.S. National Institutes of Health Guide for the Care and Use of Animals and the protocol approved by the Institutional Animal Care and Use Committee.

The mark [9] stands for this setting: HCT-116, read-out: Cytotoxicity IC50, HCT-116.
Setting [10] is: HCT-116, 72 h, read-out: Cytotoxicity IC50, HCT-116.

Structures are written as SMILES. Several values for one entry are separate records, joined by “and”; a condition that tells them apart may be missing. Equal values may be shown once. Where a name gives a salt, the structure may show the parent alone. Read-outs that look alike come from different tables or passages of the source.

As to `O=C(CCN1CCCCC1)Nc1cccc(NC(=O)Nc2ccc(N(CCCl)CCCl)cc2)c1` [BO-2147, N-(3-(3-(4-(Bis(2-chloroethyl)amino)phenyl)ureido)-phenyl)-3-(piperidin-1-yl)-propanamide], the IC50 was 3.51 µM in data set [1] (setting [9]); 0.39 µM in data set [2]; 4.63 µM in data set [3]; 7.88 µM in data set [4]; 5.73 µM in data set [5].

As to `O=C(CCN1CCCCC1)Nc1ccc(NC(=O)Nc2ccc(N(CCCl)CCCl)cc2)cc1` [BO-2057], the figures for the IC50 in data set [3], in data set [4] and in data set [5] were 3.03 µM, 1.58 µM and 2.28 µM, respectively.

Turning to `Cc1cc(NC(=O)Nc2ccc(N(CCCl)CCCl)cc2)cc(Nc2c3ccccc3nc3ccccc23)c1` [BO-1079, 1-[3-(acridin-9-ylamino)-5-methylphenyl]-3-{4-[bis(2-chloroethyl)amino]phenyl}urea], the IC50 in data set [1] (setting [10]) was 0.8 µM; in data set [2] (72 h) it was 0.14 µM; in data set [6], 0.38 µM; in data set [7], 0.53 µM. Further, the “Therapeutic effect: tumor growth suppression” value in data set [8] (75 mg/kg, QDx8, i.v., 1/1 mouse) is on record as 1/1, >99% tumor. In addition, the “Maximal body-weight loss (%)” value in data set [8] was found to be 9%.

In the case of `CN(C)CC(=O)Nc1ccc(NC(=O)Nc2ccc(N(CCCl)CCCl)cc2)cc1` [BO-2095], the IC50 in data set [1] (setting [9]) amounted to 2.54 µM; in data set [2], 0.29 µM; in data set [3], 5.36 µM; in data set [4] it was 1.21 µM; in data set [5] it was 7.33 µM.

`CN(C)CCC(=O)Nc1cccc(NC(=O)Nc2ccc(N(CCCl)CCCl)cc2)c1` [BO-2091, N-(3-(3-(4-(bis(2-chloroethyl)amino)-phenyl)ureido)phenyl)-3-(dimethylamino)-propanamide]: the IC50 in data set [1] (setting [9]) is 3.28 µM; in data set [2], 0.52 µM; in data set [3] it was 8.99 µM; in data set [4], 16.8 µM; in data set [5], 13.5 µM.

As for `CN(C)CC(=O)Nc1cccc(NC(=O)Nc2ccc(N(CCCl)CCCl)cc2)c1` [BO-2189, N-(3-(3-(4-(bis(2-chloroethyl)amino)phenyl)ureido)phenyl)-2-(dimethyl-amino)acetamide], the IC50 in data set [1] (setting [9]) came out at 9.56 µM; in data set [2] it was 0.78 µM; in data set [3], 10.6 µM; in data set [4], 8.74 µM; in data set [5], 19 µM.

`O=C(CCN1CCC(N2CCCCC2)CC1)Nc1cccc(NC(=O)Nc2ccc(N(CCCl)CCCl)cc2)c1` [BO-2191, 3-([1,4′-bipiperidin]-1′-yl)-N-(3-(3-(4-(bis(2-chloroethyl)amino)phenyl)ureido)phenyl)propanamide hydrochloride]: the IC50 in data set [1] (setting [9]) amounted to 15.7 µM; in data set [2], 1.63 µM; in data set [3], 11 µM; in data set [4], 14.2 µM; in data set [5], 22.1 µM.

Consider `CCN(CC)CC(=O)Nc1ccc(NC(=O)Nc2ccc(N(CCCl)CCCl)cc2)cc1` [BO-2094, N-(4-(3-(4-(Bis(2-chloroethyl)amino)phenyl)ureido)-phenyl)-2-(diethylamino)-acetamide], for which the IC50 in data set [1] (setting [9]) came out at 1.7 µM; in data set [3], 3.43 µM; in data set [4], 0.93 µM; in data set [5] it was 3.57 µM.

For the molecule `O=C(CN1CCOCC1)Nc1cccc(NC(=O)Nc2ccc(N(CCCl)CCCl)cc2)c1` [BO-2182], the IC50 amounted to 13 µM in data set [1] (setting [9]); 3.87 µM in data set [2]; 26.4 µM in data set [3]; 19.5 µM in data set [4]; 35.8 µM in data set [5].

Regarding `O=C(Nc1cc(CO)cc(Nc2c3ccccc3nc3ccccc23)c1)Oc1ccc(N(CCCl)CCCl)cc1` [BO-1062, [3-(acridin-9-ylamino)-5-hydroxymethylphenyl]carbamic acid 4-[bis(2-chloroethyl)amino]phenyl ester], the IC50 in data set [1] (setting [10]) stood at 0.57 µM; in data set [2] (72 h) it was 0.08 µM; in data set [6], 0.14 µM; in data set [7], 0.1 µM. For the same molecule, the “Therapeutic effect: complete tumor remission (CR), mice with CR/total and day” value in data set [8] was “achieved complete tumor remission and 1/1 CR on D22”. Moreover, in data set [8], the “Maximal body-weight loss (%)” value is given as 17%.

Regarding `O=C(CCN1CCCC1)Nc1cccc(NC(=O)Nc2ccc(N(CCCl)CCCl)cc2)c1` [BO-2121], the IC50 in data set [1] (setting [9]) stood at 5.11 µM; in data set [2], 0.67 µM; in data set [3] it was 4.33 µM; in data set [4], 9.84 µM; in data set [5], 10.3 µM.

With `Cc1cccc2c(Nc3cc(CO)cc(NC(=O)Oc4ccc(N(CCCl)CCCl)cc4)c3)c3ccccc3nc12` [BO-1063, [3-hydroxymethyl-5-(4-methylacridin-9-ylamino)phenyl]carbamic acid 4-[bis(2-chloroethyl)-amino]phenyl ester], the IC50 in data set [1] (setting [10]) was determined as 0.44 µM; in data set [2] (72 h), 0.07 µM; in data set [6] it was 0.1 µM; in data set [7], 0.08 µM. Further, the “Remark (dose tolerability)” value in data set [8] (BO-1053 70 mg/kg Q2Dx5, BO-1063 and BO-1065 100 mg/kg QDx3, i.v.) is listed as “Too high dose”.

On to `COc1cc(NC(=O)Oc2ccc(N(CCCl)CCCl)cc2)cc(Nc2c3ccccc3nc3ccccc23)c1` [BO-1066, [3-(acridin-9-ylamino)-5-methoxyphenyl]carbamic acid 4-[bis(2-chloroethyl)amino]phenyl ester], for which the IC50 in data set [1] (setting [10]) was found to be 1.71 µM; in data set [2] (72 h) it was 0.21 µM; in data set [6], 0.31 µM; in data set [7], 0.34 µM. In addition, the “Therapeutic effect: complete tumor remission (CR), mice with CR/total and day” value in data set [8] is “achieved complete tumor remission and 1/1 CR on D22”. In addition, the “Maximal body-weight loss (%)” value in data set [8] came to 13%.

In the case of `O=C(CN1CCOCC1)Nc1ccc(NC(=O)Nc2ccc(N(CCCl)CCCl)cc2)cc1` [BO-2096], the IC50 in data set [1] (setting [9]) worked out at 6.67 µM; in data set [2], 1.13 µM; in data set [3] it was 18.6 µM; in data set [4], 4.74 µM; in data set [5] it was 16 µM.

Take `O=C(CCN1CCOCC1)Nc1ccc(NC(=O)Nc2ccc(N(CCCl)CCCl)cc2)cc1` [BO-2074]: the IC50 was 7.02 µM in data set [1] (setting [9]); 1.06 µM in data set [2]; 15.2 µM in data set [3]; 3.95 µM in data set [4]; 9.74 µM in data set [5].

Regarding `O=C(CN1CCCC1)Nc1cccc(NC(=O)Nc2ccc(N(CCCl)CCCl)cc2)c1` [BO-2151, N-(3-(3-(4-(bis(2-chloroethyl)amino)phenyl)ureido)-phenyl)-2-(pyrrolidin-1-yl)acetamide], the IC50 in data set [1] (setting [9]) was found to be 5.41 µM; in data set [2], 3.41 µM; in data set [3], 9.36 µM; in data set [4], 6.55 µM; in data set [5], 12.8 µM.

In the case of `O=C(CN1CCCCC1)Nc1cccc(NC(=O)Nc2ccc(N(CCCl)CCCl)cc2)c1` [BO-2184], the IC50 worked out at 7.5 µM in data set [1] (setting [9]); 1.35 µM in data set [2]; 8.55 µM in data set [3]; 5.62 µM in data set [4]; 10.1 µM in data set [5].

For `O=C(CCN1CCOCC1)Nc1cccc(NC(=O)Nc2ccc(N(CCCl)CCCl)cc2)c1` [BO-2148], the IC50 in data set [1] (setting [9]) is 16.8 µM; in data set [2], 3.1 µM; in data set [3], 15.9 µM; in data set [4], 38.5 µM; in data set [5] it was 35.5 µM.

For `O=C(CN1CCCC1)Nc1ccc(NC(=O)Nc2ccc(N(CCCl)CCCl)cc2)cc1` [BO-2093], the IC50 in data set [2] is 0.26 µM; in data set [3], 3.41 µM; in data set [4], 0.95 µM; in data set [5], 3.52 µM.
